Molecular target: T1, human URAT1 (Homo sapiens, UniProt Q96S37)
T1 construct: Human URAT1 full length cDNA was subcloned to expression vector pcDNA3.1; expressed in transfected cells; host or cells: HEK293 cells (pcDNA3.1, geneticin-selected)
T1 sequence (Q96S37 1-553): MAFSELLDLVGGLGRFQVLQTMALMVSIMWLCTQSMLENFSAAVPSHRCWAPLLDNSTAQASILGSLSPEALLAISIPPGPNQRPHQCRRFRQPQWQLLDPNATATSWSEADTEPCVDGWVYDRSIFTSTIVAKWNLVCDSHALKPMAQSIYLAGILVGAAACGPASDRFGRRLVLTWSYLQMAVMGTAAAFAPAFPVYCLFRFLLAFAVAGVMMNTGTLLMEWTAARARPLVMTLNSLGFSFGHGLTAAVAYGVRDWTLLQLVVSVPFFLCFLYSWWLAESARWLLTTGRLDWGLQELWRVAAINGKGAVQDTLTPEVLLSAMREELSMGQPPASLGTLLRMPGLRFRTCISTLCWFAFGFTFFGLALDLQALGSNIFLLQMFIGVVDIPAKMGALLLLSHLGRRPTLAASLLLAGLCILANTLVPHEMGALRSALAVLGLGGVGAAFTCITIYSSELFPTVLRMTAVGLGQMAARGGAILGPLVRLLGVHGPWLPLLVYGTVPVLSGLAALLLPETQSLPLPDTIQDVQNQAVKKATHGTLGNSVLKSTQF
Assay: Uric acid transport inhibitory test using human URAT1-expressing cells
Assay type: cell-based
Conditions: human URAT1 expressing HEK293 cells, uptake of 14C-labeled uric acid for 5 min, room temperature; read-out: hURAT1 (IC50, concentration necessary for inhibiting the uric acid transport rate by 50%)
Source text: Reference Experimental Example 1 Uric Acid Transport Inhibitory Test Using Human Urat1-Expressing Cells
Human URAT1 full length cDNA was subcloned to expression vector pcDNA3.1 and human URAT1 gene was transfected into human embryonic kidney derived cell line (HEK293 cells) by liposome method using Lipofectamine2000. Simultaneously, HEK293 cells transfected with expression vector pcDNA3.1 alone (hereinafter mock cells) were also produced. HEK293 cells expressing human URAT1 gene or mock cells were selected with geneticin resistance as an index. The functional expression of human URAT1 gene was confirmed by a method similar to the following method, using transport of uric acid labeled with ^14C into the cells as an index.
Human URAT1 expressing HEK293 cells or mock cells were cultured in Dulbecco's modified Eagle's MEM medium (high glucose) containing 10% fetal bovine serum, 0.5 mg/mL geneticin sulfate, 100 units/mL penicillin and 100 μg/mL streptomycin under the conditions of 37° C. and 5% CO2 in an incubator. The cells were plated in a 96 well plate (poly-D-Lysine coated) at 1×10^5 cells/well and the following uric acid transport inhibitory test was performed 24 hr later. This test was performed at room temperature.
After the medium was removed by aspiration from each well, the cells were washed once with Hank's Balanced Salt Solution (HBSS) and preincubated with HBSS ([…]) for 5 min. HBSS was aspirated and an assay buffer (wherein NaCl in the above-mentioned HBSS had been substituted with Na-gluconate) containing various concentrations of the Example compound and a radioactive ligand (uric acid labeled with 14C; final concentration […]) was added to each well at […] and an uptake reaction was carried out for 5 min. After the reaction, the cells were washed twice with ice-cold HBSS ([…]), and Microscin ti TM 20 (PerkinElmer) was added at […]. The cells were lysed by stirring and the radioactivity of each well was measured in a liquid scintillation counter (TOP COUNT, Packard).
The uric acid transport rate (%) of the Example compound at each concentration was calculated relative to the radioactivity (difference in radioactivity between human URAT1 expressing HEK293 cells and mock cells without addition of Example compound (DMSO addition)) showing URAT1 specific uric acid transport as 100%, and the concentration (IC50) of the Example compound necessary for inhibiting the uric acid transport rate by 50% was determined. In Table-Table, “+++” means IC50 value of less than 100 nM, “++” means IC50 value of 100 nM to less than 1000 nM, and “+” means IC50 value of 1000 nM to less than 3000 nM.

| SMILES | IC50 |
| --- | --- |
| CS(=O)(=O)N1CCN(C(=O)c2cc(Cl)c(O)c(Cl)c2)c2ccccc21 [Example 83, (3,5-dichloro-4-hydroxyphenyl)-(4-methanesulfonyl-3,4-dihydro-2H-quinoxalin-1-yl)-methanone] | 100 to 1000 nM |
| Cc1cc(C)c2c(c1)N(C(=O)c1cc(Cl)c(O)c(Cl)c1)CCO2 [Example 66, (3,5-dichloro-4-hydroxyphenyl)-(6,8-dimethyl-2,3-dihydrobenzo[1,4]oxazin-4-yl)-methanone] | 100 to 1000 nM |
| COC(=O)c1cccc2c1OCCN2C(=O)c1cc(Cl)c(O)c(Cl)c1 [Example 61, methyl 4-(3,5-dichloro-4-hydroxybenzoyl)-3,4-dihydro-2H-benzo[1,4]oxazine-8-carboxylate] | 1000 to 3000 nM |
| COC(=O)c1cccc2c1N(C(=O)c1cc(Cl)c(O)c(Cl)c1)CCO2 [Example 58, methyl 4-(3,5-dichloro-4-hydroxybenzoyl)-3,4-dihydro-2H-benzo[1,4]oxazine-5-carboxylate] | 100 to 1000 nM |
| O=C(c1cc(Cl)c(O)c(Cl)c1)N1CCSc2ccccc21 [Example 8, (3,5-dichloro-4-hydroxyphenyl)-(2,3-dihydrobenzo[1,4]thiazin-4-yl)-methanone] | 100 to 1000 nM |
| CN(C)S(=O)(=O)c1ccc2c(c1)N(C(=O)c1cc(Cl)c(O)c(Cl)c1)CCO2 [Example 35, 4-(3,5-dichloro-4-hydroxybenzoyl)-3,4-dihydro-2H-benzo[1,4]oxazine-6-sulfonic acid dimethylamide] | 1000 to 3000 nM |
| COc1ccc2c(c1)N(C(=O)c1cc(Cl)c(O)c(Cl)c1)CCO2 [Example 17, (3,5-dichloro-4-hydroxyphenyl)-(6-methoxy-2,3-dihydrobenzo[1,4]oxazin-4-yl)-methanone] | < 100 nM |
| O=C(c1cc(Cl)c(O)c(Cl)c1)N1c2ccccc2Oc2ccccc21 [Example 64, (3,5-dichloro-4-hydroxyphenyl)-phenoxazin-10-ylmethanone] | 1000 to 3000 nM |
| O=C(c1cc(Cl)c(O)c(Cl)c1)N1CCOc2ccc(CO)cc21 [Example 56, (3,5-dichloro-4-hydroxyphenyl)-(6-hydroxymethyl-2,3-dihydrobenzo[1,4]oxazin-4-yl)-methanone] | 100 to 1000 nM |
| O=C(c1cc(Cl)c(O)c(Cl)c1)N1CCOc2ccc([N+](=O)[O-])cc21 [Example 67, (3,5-dichloro-4-hydroxyphenyl)-(6-nitro-2,3-dihydrobenzo[1,4]oxazin-4-yl)-methanone] | < 100 nM |
| O=C(c1cc(Cl)c(O)c(Cl)c1)N1CCOc2cc([N+](=O)[O-])ccc21 [Example 70, (3,5-dichloro-4-hydroxyphenyl)-(7-nitro-2,3-dihydrobenzo[1,4]oxazin-4-yl)-methanone] | 100 to 1000 nM |
| COc1ccc2c(c1)OCCN2C(=O)c1cc(Cl)c(O)c(Cl)c1 [Example 18, (3,5-dichloro-4-hydroxyphenyl)-(7-methoxy-2,3-dihydrobenzo[1,4]oxazin-4-yl)-methanone] | 100 to 1000 nM |
| O=C(c1cc(Cl)c(O)c(Cl)c1)N1CCOc2ccc(S(=O)(=O)N3CCCC3)cc21 [Example 33, (3,5-dichloro-4-hydroxyphenyl)-[6-(pyrrolidine-1-sulfonyl)-2,3-dihydrobenzo[1,4]oxazin-4-yl]-methanone] | 100 to 1000 nM |
| Cc1cccc2c1OCCN2C(=O)c1cc(Cl)c(O)c(Cl)c1 [Example 15, (3,5-dichloro-4-hydroxyphenyl)-(8-methyl-2,3-dihydrobenzo[1,4]oxazin-4-yl)-methanone] | < 100 nM |
| COC(=O)c1ccc2c(c1)N(C(=O)c1cc(Cl)c(O)c(Cl)c1)CCO2 [Example 55, methyl 4-(3,5-dichloro-4-hydroxybenzoyl)-3,4-dihydro-2H-benzo[1,4]oxazine-6-carboxylate] | 100 to 1000 nM |
| O=C(c1cc([N+](=O)[O-])c(O)c([N+](=O)[O-])c1)N1CCOc2ccccc21 [Example 30, (2,3-dihydrobenzo[1,4]oxazin-4-yl)-(4-hydroxy-3,5-dinitrophenyl)-methanone] | 100 to 1000 nM |
| Cc1cc(C(=O)N2CCOc3ccccc32)cc(C)c1O [Example 7, (2,3-dihydrobenzo[1,4]oxazin-4-yl)-(4-hydroxy-3,5-dimethylphenyl)-methanone] | 100 to 1000 nM |
| O=C(c1cc(Br)c(O)c(Br)c1)N1CCOc2ccccc21 [Example 4, (3,5-dibromo-4-hydroxyphenyl)-(2,3-dihydrobenzo[1,4]oxazin-4-yl)-methanone] | < 100 nM |
| O=C(c1ccc(Cl)c(O)c1)N1CCOc2ccccc21 [Example 41, (4-chloro-3-hydroxyphenyl)-(2,3-dihydrobenzo[1,4]oxazin-4-yl)-methanone] | 100 to 1000 nM |
| COC(=O)c1ccc2c(c1)OCCN2C(=O)c1cc(Cl)c(O)c(Cl)c1 [Example 59, methyl 4-(3,5-dichloro-4-hydroxybenzoyl)-3,4-dihydro-2H-benzo[1,4]oxazine-7-carboxylate] | 1000 to 3000 nM |
| O=C(c1cc(Cl)c(O)c(Cl)c1)N1CCOc2ccc(-c3ccccc3)cc21 [Example 65, (3,5-dichloro-4-hydroxyphenyl)-(6-phenyl-2,3-dihydrobenzo[1,4]oxazin-4-yl)-methanone] | 1000 to 3000 nM |

More lines, now with the values ahead:

| IC50 | SMILES |
| --- | --- |
| 100 to 1000 nM | O=C(c1cc(Cl)cc(Cl)c1O)N1CCOc2ccccc21 [Example 38, (3,5-dichloro-2-hydroxyphenyl)-(2,3-dihydrobenzo[1,4]oxazin-4-yl)-methanone] |
| < 100 nM | O=C(c1cc(Cl)c(O)c([N+](=O)[O-])c1)N1CCOc2ccccc21 [Example 31, (3-chloro-4-hydroxy-5-nitrophenyl)-(2,3-dihydrobenzo[1,4]oxazin-4-yl)-methanone] |
| < 100 nM | O=C(c1cc(Cl)c(O)c(Cl)c1)N1CCOc2ccc(Cl)cc21 [Example 51, (6-chloro-2,3-dihydrobenzo[1,4]oxazin-4-yl)-(3,5-dichloro-4-hydroxyphenyl)-methanone] |
| 1000 to 3000 nM | Nc1ccc2c(c1)OCCN2C(=O)c1cc(Cl)c(O)c(Cl)c1 [Example 71, (7-amino-2,3-dihydrobenzo[1,4]oxazin-4-yl)-(3,5-dichloro-4-hydroxyphenyl)-methanone] |
| 100 to 1000 nM | O=C(c1cc(Cl)c(O)c(Cl)c1)N1CCOc2cccnc21 [Example 36, (3,5-dichloro-4-hydroxyphenyl)-(2,3-dihydropyrido[3,2-b][1,4]oxazin-4-yl)-methanone] |
| 100 to 1000 nM | O=C(c1cc(Cl)c(O)c(Cl)c1)N1CCOc2cc(O)ccc21 [Example 20, (3,5-dichloro-4-hydroxyphenyl)-(7-hydroxy-2,3-dihydrobenzo[1,4]oxazin-4-yl)-methanone] |
| < 100 nM | Cc1ccc2c(c1)N(C(=O)c1cc(Cl)c(O)c(Cl)c1)CCO2 [Example 12, (3,5-dichloro-4-hydroxyphenyl)-(6-methyl-2,3-dihydrobenzo[1,4]oxazin-4-yl)-methanone] |
| 100 to 1000 nM | Nc1ccc2c(c1)N(C(=O)c1cc(Cl)c(O)c(Cl)c1)CCO2 [Example 68, (6-amino-2,3-dihydrobenzo[1,4]oxazin-4-yl)-(3,5-dichloro-4-hydroxyphenyl)-methanone] |
| < 100 nM | Oc1c(Cl)cc(C(=S)N2CCOc3ccccc32)cc1Cl [Example 11, (3,5-dichloro-4-hydroxyphenyl)-(2,3-dihydrobenzo[1,4]oxazin-4-yl)-methanethione] |
| 100 to 1000 nM | Cc1ccc2c(c1)OCCN2C(=O)c1cc(Cl)c(O)c(Cl)c1 [Example 13, (3,5-dichloro-4-hydroxyphenyl)-(7-methyl-2,3-dihydrobenzo[1,4]oxazin-4-yl)-methanone] |

Reference: patent publication US20080064871A1, “Production Method of Nitrogen-Containing Fused Ring Compounds” (Japan Tobacco Inc., priority 2006, published 2008)
